Data reported in patent EP0309120A2, “Atrial hypotensive peptide” (QUEEN'S UNIVERSITY AT KINGSTON, priority 1987, dated 1989).
Ends that are not written are not given here.

How the values were obtained:
[1] = tested on: antiserum to iso-rANP(1-20) (P2A); test: Radioimmunoassay (RIA) with anti-P2A antiserum and 125I-P2A-Y tracer; assay type: binding, New Zealand white rabbits; conditions: antiserum used for the RIA
Description: The procedure was repeated to produce the same 20 amino acid residue fragment with a tyrosine residue attached to the N-terminal serine. The 20-residue peptide (P2A) was mixed with Freund's complete adjuvant and injected subcutaneously into New Zealand white rabbits. After boosting at 5 weeks after the initial injection the rabbits were bled 1 week later. […] Tyrosinated P2A (P2A-Y) was iodinated using the chloramine T method and the iodinated tracer was purified by HPLC on a Waters µBondapak C₁₈ column. For radioimmunossay (RIA) the buffer contained 0.1M NaHPO₄ buffer, pH 7.4, 0.05M NaCl, 0.1% BSA and 0.02% […]. The RIA incubation mixture contained 3-100 pg of P2A in 100 µ l of buffer, 100 µl of diluted antiserum and 100 µl of ¹²⁵I-P2A-Y (approx. 8000 cpm). After incubation overnight at 4°C bound and free iodinated peptide were separated by second antibody precipitation using goat anti-rabbit - globulin. The sensitivity of the assay was 2-3 pg/tube with 50% displacement at 25-30 pg/tube.
The RIA was then used to monitor the purification of the peptide de novo from atrial extracts using gel-filtration and reverse-phase HPLC. The procedure used was essentially the same as the one briefly described above for the purification of ANP, except that the initial extraction and the gel-filtration stages were done in the presence of several protease inhibitors.

bioassay rats = test: Bolus injection into anesthetized bioassay rats: urinary and cardiovascular responses; assay type: in vivo, male Sprague-Dawley rats
Experimental: Experiments were performed using male Sprague-Dawley rats, ranging in weight from 270-362 g. The rats were anesthetized by an intraperitoneal injection of sodium pentobarbital (70 mg.kg-1; MTC Pharmaceuticals, Hamilton, Ont.). Additional small amounts of anesthetic were administered as required in the course of the experiment. […] After installing a tracheal cannula, a femoral vein was cannulated and a priming infusion of saline (0.9% NaCl) was administered over a 20 min period (1.1 ml); this was followed by a maintenance saline infusion of 1.2 ml.h-1. The femoral artery was then cannulated for blood pressure measurement (Statham pressure transducer, model P23Db). A catheter was also advanced via the right external jugular vein towards the right heart for bolus injections of vehicle, ANF or the atrial peptide of the present invention (AHP). After tying off the penis, the bladder was cannulated for urine collection. Rates were not used or experiments aborted if the urine became bloody. The EKG was recorded for determination of heart rate.
Urine was collected in preweighed vials and volume calculated by weighing. The time for sequential urine collections was 5 min or, increments of 4 min until there was enough urine volume for electrolyte determinations (0.25 ml or 16 drops). Rat kidneys were removed at the termination of the experiments so that urinary excretion measurements could be normalized for total kidney weight. Measurements of NA+ and K+ were obtained using ion specific electrodes and Cl- was obtained by coulometric titration.
Zero time was established by 40-60 mins from the beginning the priming saline infusion. The control measurements were carried out over 20 mins or, until there was sufficient urine collection for electrolyte determinations. A bolus injection of vehicle, rANP(99-126) or iso-rANP(1-46) or iso-rANP(17-46) was then administered into the jugular vein catheter and the catheter immediately cleared of remaining injectate by a secondary bolus of 0.2 ml saline. The rANP(99-126) was obtained from Armand-Frappier, Montreal. Cardiovascular measurements were analyzed at 5 min intervals during control and at 1, 5, 10, 15 and 20 mins following administration of injectate. […] Thus, residues 17-46 of the native peptide represent a functional, as well as structural, homologue of both ANP and BNP. Moreover, it would appear that residues 1-20 of iso-rANP(1-46) are not required for biological activity. […] It required twice the dose of iso-rANP(17-46) (1.5 nanomol) to produce equivalent average decreases in mean arterial blood pressure and heart rate as rANP(99-126) (0.7 nanomol). […] Variability of response of assay rats to injected peptides is evident from the rather larger variances (SEM).

[2] = tested on: Aortic rings (thoracic aortae); test: Vasorelaxant activity on phenylephrine-contracted aortic rings; set-up: species or system New Zealand White rabbits
Experimental: Aortic rings (3-4mm) were cut from the thoracic aortae of New Zealand White rabbits. The rings were suspended in a 10 ml tissue bath containing Kreb's Ringer Solution, pH 7.4 at 37°C. The rings were maintained at about 70% of maximal contraction with phenylephrine in doses ranging from 1 x 10⁻⁶ to 5 x 10⁻⁸M. Vasorelaxant activity or peptides was tested by adding various concentrations of peptide to the bath.

Substance | cross-reaction with antiserum [1] | effect in increasing urinary volume as well as Na+, K+ and Cl- excretion (bioassay rats; 3.0 nanomol, four-fold larger dose than rANP(99-126), compared with rANP(99-126)) | potency compared with rANP(99-126) (bioassay rats; as shown in Table 1, result in words) | dose to produce equivalent average decreases in mean arterial blood pressure and heart rate (bioassay rats; bolus into jugular vein catheter) [nmol] | urinary responses (bioassay rats; dose 0.9 nmol) | additional effect on cardiovascular responses (mean arterial blood pressure, heart rate) (bioassay rats; dose increased to 3.0 nanomol) | diuretic, natriuretic, hypotensive and bradycardic responses (bioassay rats; injected into bioassay rats, result in words) | smooth muscle vaso-relaxant activity ([2]; rabbit aortic rings at about 70% of maximal contraction with phenylephrine, result in words) | higher dose required to produce the same relaxation obtained by 50 ng of rANP(99-126) ([2]; rabbit aortic rings, relative to 50 ng of rANP(99-126)) [fold] | potency compared with ANP(99-126) ([2]; rabbit aortic rings, result in words)
ANP: atrial natriuretic peptide, length not specified at this place | did not cross-react |  |  |  |  |  |  |  |  | 
MAHSSSCFGEKIDRIGAVSRLGCDILLIAQ (cysteine pairing not given here) [iso-rANP(17-46), chemically synthesized peptide corresponding to residues 17-46 of iso-rANP(1-46)] |  | somewhat lesser effect | somewhat less than rANP(99-126) | 1.5 | only a small effect in most rats | no additional effect | elicited diuretic, natriuretic, hypotensive and bradycardic responses qualitatively similar to both the native peptide and rANP | showed smooth muscle vaso-relaxant activity | 20 | less potent
